# Measurements: patent publication US20230381125A1
# Where two headings read alike, the source gives them in different places.
# How the values were obtained:
# [1] = rodent models of acute lung injury; cited from earlier work
# SARS-CoV-2 [2] = details: cited from earlier work
# [3] = cited from earlier work
# [4] = cited from earlier work; for CD4+ and CD8+ Treg responses in vivo / autoreactive Th1 and Th17 cells in vivo: in vivo administration; for disease progression in mouse models of type 1 diabetes, multiple sclerosis, and rheumatoid arthritis / inflammation in a mouse model of type 2 diabetes: in vivo
# [5] = room temperature; cited from earlier work
# [6] = biological target: SARS-CoV-2 binding to its cellular receptor (UniProt P0DTC2+Q9BYF1); details: NIH core screening facility data; cited from earlier work
# [7] = phase 1b oral dosing study; cited from earlier work
# SARS-CoV-2 [8] = assay type: in vivo, K18-hACE2 mice; details: for mice that died during the 7-day observation period: control 3/5 died
# [9] = system: anti-CD3-activated human PBMC; details: cited from earlier work
# MHV-1 = MHV-1 infected A/J mice given GABA-R agonist in drinking water; assay type: in vivo; details: for body weight loss vs. plain water (FIG. 4A) / death rate vs. plain water (FIG. 4C) / disease (illness) scores vs. plain water (FIG. 4B) / lung coefficient index vs. plain water (FIG. 4D): Example 2, in water: GABA 2 mg/mL, homotaurine 0.25 mg/mL, baclofen 0.25 mg/mL; for mice that died up to day 14 post-infection: control 3/9 survived; for average body weight loss by day 6: control lost 23%
# [10] = large long-term phase III clinical trial; cited from earlier work
# [11] = 0.2 mg/mL p=0.049, 20 mg/mL p=0.174, log-rank test
# [12] = GABA 20 mg/ml in water, from 3 days post-infection
# [13] = GABA 20 mg/ml in water, starting immediately after MHV-1 inoculation
structure (smiles),measurement,setting,value
"NCCCC(=O)O [GABA, gamma-aminobutyric acid]","inflammation, alveolar fluid clearance and lung functional recovery",[1],reduce inflammation and improve alveolar fluid clearance and lung functional recovery
same,interference with SARS-CoV-2 replication,SARS-CoV-2 [2]; NIH core screening facility data,did not interfere
same,effect on SARS infection or replication,SARS-CoV-2 [2]; NIH drug screening program,no effect
same,clinical benefit (ability to reduce seizures),[3]; hundreds of epilepsy patients,no clinical benefit
same,adverse effects,[3]; long-term studies in epilepsy patients,no adverse effects
same,CD4+ and CD8+ Treg responses in vivo,[4],promoting
same,autoreactive Th1 and Th17 cells in vivo,[4],inhibits
same,"disease progression in mouse models of type 1 diabetes, multiple sclerosis, and rheumatoid arthritis",[4],inhibits disease progression
same,inflammation in a mouse model of type 2 diabetes,[4],limits inflammation
same,stability,[5],stable at room temperature
same,interference with SARS-CoV-2 interaction with its cellular receptor,[6],did not interfere
same,safety,[7],safe
same,death rates vs. plain water,SARS-CoV-2 [8]; [11],reduced
same,survival following SARS-CoV2 infection vs. control (FIG. 5),SARS-CoV-2 [8]; [11],increased
same,mice that died during the 7-day observation period,"SARS-CoV-2 [8]; GABA 0.2 mg/mL in water, p<0.05",none
same,mice that died during the 7-day observation period,"SARS-CoV-2 [8]; GABA 20 mg/ml in water, p=0.174",1/5
same,viral N1 and N2 transcripts in the lungs (RT-qPCR) vs. control,"SARS-CoV-2 [8]; lungs harvested on days 6-7, data not shown",tended to be lower
same,"IL-6, CXCL10/IP-10, CCL4, CCL20, and MCP-3 production",[9],inhibits
same,body weight loss vs. plain water (FIG. 4A),MHV-1,significantly reduced
same,death rate vs. plain water (FIG. 4C),MHV-1,significantly reduced
same,disease (illness) scores vs. plain water (FIG. 4B),MHV-1,significantly reduced
same,body weight loss vs. control (FIG. 1A),"MHV-1; GABA0 and GABA3 vs. control, p<0.0001",reduced
same,illness scores vs. control (FIG. 2),"MHV-1; GABA0 and GABA3 vs. control, p<0.001",reduced
same,survival following MHV-1 infection vs. control (FIG. 1B),"MHV-1; GABA0 p=0.002, GABA3 p=0.001, log rank test",increased
same,highest average illness score (scale 0-5),"MHV-1; GABA 20 mg/ml in water immediately after inoculation, day 7 post-infection",1.6
same,"body weight at 14 days post-infection, % of starting weight",MHV-1; [12],90%
same,maximum mean illness score (scale 0-5),MHV-1; [12],2.5
same,mice that died up to day 14 post-infection,"MHV-1; GABA 20 mg/ml in water, from 3 days post-infection, death on day 9",1/9
same,average body weight loss by day 6,"MHV-1; GABA 20 mg/ml in water, given from three days after infection",17%
same,average body weight loss by day 6,"MHV-1; GABA 20 mg/ml in water, given immediately after MHV-1 infection",11%
same,body weight below starting weight 14 days post-infection,MHV-1; [13],7%
same,mice that died up to day 14 post-infection,MHV-1; [13],none
NCC(CC(=O)O)c1ccc(Cl)cc1 (centres unmarked) [baclofen],body weight loss vs. plain water (FIG. 4A),MHV-1,did not significantly decrease
same,death rate vs. plain water (FIG. 4C),MHV-1,did not significantly decrease
same,disease (illness) scores vs. plain water (FIG. 4B),MHV-1,slight but significant ability to reduce
same,lung coefficient index vs. plain water (FIG. 4D),MHV-1,did not significantly decrease
NCCCS(=O)(=O)O [homotaurine],CD4+ and CD8+ Treg responses in vivo,[4],promoting
same,autoreactive Th1 and Th17 cells in vivo,[4],inhibits
same,"disease progression in mouse models of type 1 diabetes, multiple sclerosis, and rheumatoid arthritis",[4],inhibits disease progression
same,inflammation in a mouse model of type 2 diabetes,[4],limits inflammation
same,stability,[5],stable at room temperature
same,efficacy in Alzheimer's disease,[10],not effective
same,safety,[10],excellent safety record
same,body weight loss vs. plain water (FIG. 4A),MHV-1,significantly reduced
same,death rate vs. plain water (FIG. 4C),MHV-1,significantly reduced
same,disease (illness) scores vs. plain water (FIG. 4B),MHV-1,significantly reduced
same,lung coefficient index vs. plain water (FIG. 4D),MHV-1,significantly reduced
